According to ChEMBL document CHEMBL4311934, “Exploration of [2 + 2 + 2] cyclotrimerisation methodology to prepare tetrahydroisoquinoline-based compounds with potential aldo-keto reductase 1C3 target affinity” (Medchemcomm, 2019):

Tests used:
[1] = organism: Homo sapiens; test: Selectivity index, ratio of IC50 for N-terminal GST-tagged recombinant human AKR1C2 expressed in Escherichia coli BL21 (DE) Codon Plus RP cells to IC50 for N-terminal GST-tagged recombinant human AKR1C3 expressed in Escherichia coli BL21 (DE) Codon Plus RP cells
[2] = molecular target: T1, Aldo-keto reductase family 1 member C3 (Homo sapiens, UniProt P42330); test: Inhibition of N-terminal GST-tagged recombinant human AKR1C3 expressed in Escherichia coli BL21 (DE) Codon Plus RP cells assessed as reduction in NADPH production using S-tetralol as substrate in presence of NADP+ by fluorimetry assay
T1 sequence (P42330 whole entry): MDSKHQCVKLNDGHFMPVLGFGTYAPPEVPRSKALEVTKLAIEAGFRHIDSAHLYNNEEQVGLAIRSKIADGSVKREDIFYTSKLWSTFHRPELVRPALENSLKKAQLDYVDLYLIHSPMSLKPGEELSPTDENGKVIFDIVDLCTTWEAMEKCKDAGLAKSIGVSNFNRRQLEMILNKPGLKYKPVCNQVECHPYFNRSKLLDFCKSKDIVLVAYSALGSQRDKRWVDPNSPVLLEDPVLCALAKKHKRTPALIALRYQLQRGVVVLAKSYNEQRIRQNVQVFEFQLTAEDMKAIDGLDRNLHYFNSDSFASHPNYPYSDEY

[3] = molecular target: T2, Aldo-keto reductase family 1 member C2 (Homo sapiens, UniProt P52895); test: Inhibition of N-terminal GST-tagged recombinant human AKR1C2 expressed in Escherichia coli BL21 (DE) Codon Plus RP cells assessed as reduction in NADPH production using S-tetralol as substrate in presence of NADP+ by fluorimetry assay
T2 sequence (P52895 whole entry): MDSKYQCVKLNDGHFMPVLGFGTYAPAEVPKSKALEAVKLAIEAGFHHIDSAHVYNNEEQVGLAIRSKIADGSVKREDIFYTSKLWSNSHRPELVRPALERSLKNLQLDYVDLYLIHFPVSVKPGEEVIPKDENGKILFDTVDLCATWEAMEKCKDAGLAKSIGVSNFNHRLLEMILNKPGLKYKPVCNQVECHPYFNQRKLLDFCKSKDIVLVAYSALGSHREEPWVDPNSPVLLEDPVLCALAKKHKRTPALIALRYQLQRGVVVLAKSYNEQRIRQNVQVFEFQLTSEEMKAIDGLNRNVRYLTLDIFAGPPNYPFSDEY

[4] = molecular target: T3, Aldo-keto reductase family 1 member C3 (Homo sapiens) (UniProt P42330); test: Inhibition of N-terminal GST-tagged recombinant human AKR1C3 expressed in Escherichia coli BL21 (DE) Codon Plus RP cells assessed as reduction in NADPH production at 50 uM using S-tetralol as substrate in presence of NADP+ by fluorimetry assay relative to control
T3 sequence (whole entry): T1 sequence (P42330 whole entry)

[5] = molecular target: T4, Aldo-keto reductase family 1 member C2 (Homo sapiens) (UniProt P52895); test: Inhibition of N-terminal GST-tagged recombinant human AKR1C2 expressed in Escherichia coli BL21 (DE) Codon Plus RP cells assessed as reduction in NADPH production 50 uM using S-tetralol as substrate in presence of NADP+ by fluorimetry assay relative to control
T4 sequence (whole entry): T2 sequence (P52895 whole entry)

Compound	Ratio IC50 [1]	IC50 [2]	IC50 [3]	inhibition [4]	inhibition [5]
CCOC(=O)c1cc2c(cc1C(=O)OCC)CN1C(=O)CCC1C2 (stereo unspecified)	8	11.7 µM	96.2 µM	–	–
COc1ccc2cc3[n+](cc2c1OC)CCc1cc2c(cc1-3)OCO2 [BERBERINE]	–	5.9 µM	6.71 µM	–	–
O=C(O)c1cc2c(cc1C(=O)O)CN1C(=O)CCC1C2 (stereo unspecified)	–	23.1 µM	27.3 µM	–	–
O=C1CCC2Cc3cc(CO)c(CO)cc3CN12 (stereo unspecified)	–	> 50 µM	> 50 µM	25%	26.9%
